# Assay results as given in US20070059632A1, “Method of manufacturing a semiconductor device” (priority 2003, published 2007).
# How the values were obtained:
# Assay type in all cases: physicochemical
# [1] = Alkali developability; design: key: A: the resist film dissolved completely and disappeared; C: the resist film remained not dissolved even in a slight amount; settings: tested on the corresponding polyphenol compound A before introducing the acid-dissociating group; film immersed in 2.38% aqueous TMAH for 10 s
# Description: (5) Alkali Developability
# A polyphenol compound A corresponding to each compound before introducing the acid-dissociating functional group was examined for its developability with an alkali developing solution.
# A 10% by weight solution of each polyphenol compound A in PGMEA was spin-coated using a spin coater, to form a resist film of about 0.2 μm thick. After heating on a hot plate for 3 min at 110° C., the resist film was immersed in a 2.38% aqueous solution of TMAH for 10 s. The results were rated as “A” when the resist film dissolved completely and disappeared, and “C” when the resist film remained not dissolved even in a slight amount.
# [2] = Inhibition of dissolution in alkali developing solution; design: key: A: no change was visually noticed in the state of film; C: the surface was roughened or a part of the film was lost because of dissolution; settings: resist film immersed in 2.38% aqueous solution of TMAH for 3 min
# Description: (3) Inhibition of Dissolution in Alkali Developing Solution
# The resist film formed in the evaluation 2 was immersed in a developing solution (2.38% aqueous solution of TMAH) for 3 min. The results were rated as “A” when no change was visually noticed in the state of film, and “C” when the surface was roughened or a part of the film was lost because of dissolution.
# [3] = Solubility of compound in safety solvent; settings: safety solvent (PGMEA or EL) at 23° C.
# Description: (1) Solubility of Compound in Safety Solvent
# Each compound was tested for its solubility in safety solvent (PGMEA or EL) at 23° C. The solubility was rated as “A” when dissolved in an amount of 5% by weight or more, “B” when dissolved in an amount of 0.1% by weight or more but less than 5% by weight, and “C” when not dissolved in an amount of 0.1% by weight or more.
SMILES,(5) Alkali developability [1],(3) Inhibition of dissolution in developing solution [2],(1) Solubility in safety solvent [3]
Cc1cc(C(C)(c2ccc(OC(=O)OC(C)(C)C)c(C)c2)c2ccc3ccccc3c2)ccc1OC(=O)OC(C)(C)C [Compound 5-1],A,A,A (dissolved in an amount of 5% by weight or more)
Cc1cc(C(C)(c2ccc(OC(=O)OC(C)(C)C)c(C)c2)c2ccc3ccccc3c2)ccc1O (stereo not drawn) [Compound 5-2],A,A,A (dissolved in an amount of 5% by weight or more)
CC(C)(C)OC(=O)Cc1cc(C(C)(c2ccc(OC(=O)OC(C)(C)C)c(OC(=O)OC(C)(C)C)c2)c2ccc3ccccc3c2)ccc1OC(=O)OC(C)(C)C (stereo not drawn) [Compound 5-3],A,A,A (dissolved in an amount of 5% by weight or more)
CCOC(C)Oc1ccc(C(C)(c2ccc(O)c(C)c2)c2ccc3ccccc3c2)cc1C (stereo not drawn) [Compound 5-4],A,A,A (dissolved in an amount of 5% by weight or more)
Cc1cc(C(C)(c2ccc(OC(C)OC3CCCCC3)c(C)c2)c2ccc3ccccc3c2)ccc1O (stereo not drawn) [Compound 5-5],A,A,A (dissolved in an amount of 5% by weight or more)
Cc1cc(C(C)(c2ccc(OC3CCCCO3)c(C)c2)c2ccc3ccccc3c2)ccc1O (stereo not drawn) [Compound 5-6],A,A,A (dissolved in an amount of 5% by weight or more)
CCOC(C)Oc1ccc(C(C)(c2ccc(O)c(C3CCCCC3)c2)c2ccc3ccccc3c2)cc1C1CCCCC1 (stereo not drawn) [Compound 5-7],A,A,A (dissolved in an amount of 5% by weight or more)
CC(C)(C)OC(=O)Oc1ccc(C(C)(c2ccc(O)cc2)c2ccc3ccccc3c2)cc1 (stereo not drawn) [Compound 5-8],A,A,A (dissolved in an amount of 5% by weight or more)
CC(C)(C)OC(=O)Oc1ccc(C(c2ccc(O)cc2)c2cccc3ccccc23)cc1 (stereo not drawn) [Compound 5-9],A,A,A (dissolved in an amount of 5% by weight or more)
Oc1ccc(C(c2ccc(OC3CCCCO3)cc2)c2ccc(-c3ccccc3)cc2)cc1 (stereo not drawn) [Compound 6-1],A,A,A (dissolved in an amount of 5% by weight or more)
CC(C)(C)OC(=O)Oc1ccc(C2(c3ccc(OC(=O)OC(C)(C)C)c(OC(=O)OC(C)(C)C)c3)c3ccccc3-c3ccccc32)cc1OC(=O)OC(C)(C)C [Compound 7-1],–,A,B (dissolved in an amount of 0.1% by weight or more but less than 5% by weight)
CC(C)(C)OC(=O)Oc1cc(C2(c3ccc(OC(=O)OC(C)(C)C)c(OC(=O)OC(C)(C)C)c3)c3ccccc3-c3ccccc32)ccc1O [Compound 7-2],A,A,A (dissolved in an amount of 5% by weight or more)
CC(C)(C)OC(=O)Cc1cc(C2(c3cc(OC(=O)OC(C)(C)C)c(OC(=O)OC(C)(C)C)c(OC(=O)OC(C)(C)C)c3)c3ccccc3-c3ccccc32)cc(OC(=O)OC(C)(C)C)c1OC(=O)OC(C)(C)C [Compound 7-3],A,A,A (dissolved in an amount of 5% by weight or more)
Oc1ccc(C2(c3ccc(OC4CCCCO4)cc3)c3ccccc3-c3ccccc32)cc1 (stereo not drawn) [Compound 7-4],A,A,A (dissolved in an amount of 5% by weight or more)
O=C1c2ccccc2C(c2ccc(O)cc2)(c2ccc(OC3CCCCO3)cc2)c2ccccc21 (stereo not drawn) [Compound 7-5],A,A,A (dissolved in an amount of 5% by weight or more)
Oc1ccc(C2(c3ccc(OC4CCCCO4)cc3)Cc3cccc4cccc2c34)cc1 (stereo not drawn) [Compound 8-1],A,A,A (dissolved in an amount of 5% by weight or more)
O=C1c2cccc3cccc(c23)C1(c1ccc(O)cc1)c1ccc(OC2CCCCO2)cc1 (stereo not drawn) [Compound 8-2],A,A,A (dissolved in an amount of 5% by weight or more)
CCOC(C)Oc1ccc(C2(c3ccc(O)c(C4CCCCC4)c3)Cc3cccc4cccc2c34)cc1C1CCCCC1 (stereo not drawn) [Compound 8-3],A,A,A (dissolved in an amount of 5% by weight or more)
CC(C)(C)OC(=O)Oc1ccc(C2(c3ccc(OC(=O)OC(C)(C)C)cc3)C(=O)c3cccc4cccc2c34)cc1 [Compound 8-4],A,A,A (dissolved in an amount of 5% by weight or more)
CCOC(C)Oc1ccc(C2(c3ccc(O)c(-c4ccccc4)c3)Cc3cccc4cccc2c34)cc1-c1ccccc1 (stereo not drawn) [Compound 8-5],A,A,A (dissolved in an amount of 5% by weight or more)
CC1(c2ccc3ccccc3c2)c2ccc(O)cc2Oc2cc(OC3CCCCC3)ccc21 (stereo not drawn) [Compound 9-1],A,A,A (dissolved in an amount of 5% by weight or more)
CCCCOC(=O)Oc1ccc2c(c1)Oc1cc(OC(=O)OCCCC)ccc1C2c1ccc(-c2ccccc2)cc1 [Compound 10-1],A,A,A (dissolved in an amount of 5% by weight or more)
Oc1ccc2c(c1)Oc1cc(OC3CCCCO3)ccc1C2c1ccc(-c2ccccc2)cc1 (stereo not drawn) [Compound 10-2],A,A,A (dissolved in an amount of 5% by weight or more)
CC(C)(C)OC(=O)Oc1ccc2c(c1)Oc1cc(O)ccc1C21c2ccccc2-c2ccccc21 [Compound 11-1],A,A,A (dissolved in an amount of 5% by weight or more)
CC(C)(C)OC(=O)Oc1ccc2c(c1)Oc1cc(OC(=O)OC(C)(C)C)ccc1C21c2ccccc2-c2ccccc21 [Compound 11-2],A,A,B (dissolved in an amount of 0.1% by weight or more but less than 5% by weight)
CCOC(C)Oc1ccc2c(c1)Oc1cc(O)ccc1C21c2ccccc2-c2ccccc21 (stereo not drawn) [Compound 11-3],A,A,A (dissolved in an amount of 5% by weight or more)
"CC(C)(C)OC(=O)Oc1ccc(C(C)(C)c2ccc(OC(=O)OC(C)(C)C)cc2)cc1 [Compound 14-1, reference compound]",A,–,C (not dissolved in an amount of 0.1% by weight or more)
"CC(C)(C)OC(=O)Oc1ccc(C2(c3ccc(OC(=O)OC(C)(C)C)cc3)CCCCC2)cc1 [Compound 14-2, reference compound]",A,–,C (not dissolved in an amount of 0.1% by weight or more)
